Structures can show the parent of a compound that is named as a salt.
Experiments:
[1] = target: T1, catalytic domain (JH1) of human JAK2 (Homo sapiens (Human), UniProt O60674); test: JAK2 LanthaScreen JH1 Binding Assay; details: JAK2 JH1, 50 nM tracer, 2 hours at 25° C.
Experimental: Example A. JAK2 LanthaScreen JH1 Binding Assay
JAK2 JH1 binding assay utilizes catalytic domain (JH1, amino acids 826-1132) of human JAK2 expressed as N-terminal FLAG-tagged, biotinylated protein in a baculovirus expression system (Carna Biosciences, Product #08-445-20N). The assay was conducted in black 384-well polystyrene plates in a final reaction volume of 20 μL. JAK2 JH1 (1.5 nM) was incubated with compounds (100 nL serially diluted in DMSO) in the presence of 50 nM Fluorescent JAK2-JH1 Tracer and 0.5 nM Streptavidin-Tb cryptate (Cisbio Part #610SATLB) in assay buffer (50 mM Tris, pH=7.5, 10 mM MgCl2, 0.01% Brij-35, 0.1% BSA, 1 mM EGTA, 5% Glycerol and 5 mM DTT). Non-specific binding was accessed in the presence of 2 mM ATP. After incubation for 2 hours at 25° C., LanthaScreen signals were read on a PHERAstar FS plate reader (BMG LABTECH). Data was analyzed with IDBS XLfit and GraphPad Prism 5.0 software using a four parameter dose response curve to determine IC50 for each compound.
Target sequence in this assay (O60674 826-1132): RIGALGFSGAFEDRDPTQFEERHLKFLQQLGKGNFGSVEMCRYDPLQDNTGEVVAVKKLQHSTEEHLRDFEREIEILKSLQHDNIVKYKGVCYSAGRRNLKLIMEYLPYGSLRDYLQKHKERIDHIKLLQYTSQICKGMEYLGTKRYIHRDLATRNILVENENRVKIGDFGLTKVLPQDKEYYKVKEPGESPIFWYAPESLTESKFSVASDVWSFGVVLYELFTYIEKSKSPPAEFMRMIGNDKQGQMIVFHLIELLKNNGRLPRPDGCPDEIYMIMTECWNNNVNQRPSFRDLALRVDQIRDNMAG

[2] = target: pseudo-kinase domain (JH2) of human V617F mutant JAK2 (Homo sapiens (Human), UniProt O60674, F794H/V617F/W659A/W777A); test: JAK2 LanthaScreen JH2-V617F Binding Assay; details: 50 nM tracer, 1 hour at 25° C.
Sequence of pseudo-kinase domain (JH2) of human V617F mutant JAK2 (O60674 536-812 V617F/W659A/W777A/F794H): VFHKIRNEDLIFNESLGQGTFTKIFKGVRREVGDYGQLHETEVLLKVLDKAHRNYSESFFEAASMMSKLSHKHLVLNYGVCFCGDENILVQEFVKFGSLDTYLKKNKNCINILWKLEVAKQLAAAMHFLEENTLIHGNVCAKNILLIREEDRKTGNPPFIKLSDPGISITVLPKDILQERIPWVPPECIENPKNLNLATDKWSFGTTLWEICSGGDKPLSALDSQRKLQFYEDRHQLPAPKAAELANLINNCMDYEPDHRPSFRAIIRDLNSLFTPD
Experimental: Example C. JAK2 LanthaScreen JH2-V617F Binding Assay
(§1) JAK2 JH2-V617F binding assay utilizes pseudo-kinase domain (JH2, amino-acids 536-812 with 3 surface mutations W659A, W777A, F794H) of human V617F mutant JAK2 expressed as C-terminal His-Avi-tagged, biotinylated protein in a baculovirus expression system (BPS Bioscience, Catalog #79498). The assay was conducted in black 384-well polystyrene plates in a final reaction volume of 20 μL. JAK2 JH2-V617F (0.26 nM) was incubated with compounds (100 nL serially diluted in DMSO) in the presence of 50 nM Fluorescent JAK2-JH2 Tracer (MedChem Express Catalog #HY-102055) and 0.25 nM Streptavidin-Tb cryptate (Cisbio Part #610SATLB) in assay buffer (50 mM Tris, pH=7.5, 10 mM MgCl2, 0.01% Brij-35, 0.1% BSA, 1 mM EGTA, 5% Glycerol and 5 mM DTT). Non-specific binding was accessed in the presence of 2 mM ATP. After incubation for 1 hour at 25° C., LanthaScreen signals were read on a PHERAstar FS plate reader (BMG LABTECH). Data was analyzed with IDBS XLfit and GraphPad Prism 5.0 software using a four parameter dose response curve to determine IC50 for each compound.

[3] = target: T1, catalytic domain (JH1) of human JAK2; test: JAK2 HTRF Enzyme Activity Assay; format: biochemical; details: ATP 30 μM; read-out: ENZ 30UMATP IC50
Experimental: Example D. JAK2 HTRF Enzyme Activity Assay
JAK2 enzyme activity assays utilize catalytic domain (JH1, amino acids 808-1132) of human JAK2 expressed as N-terminal His-tagged protein in a baculovirus expression system (BPS Bioscience, Catalog #40450). The assays was conducted in black 384-well polystyrene plates in a final reaction volume of 20 μL. JAK2 (0.015 nM) was incubated with compounds (100 nL serially diluted in DMSO) in the presence of ATP (30 μM or 1 mM) and 500 nM Biotin-labeled EQEDEPEGDYFEWLE (SEQ ID NO.: 1) peptide (BioSource International, custom synthesis) in assay buffer (50 mM Tris, pH=7.5, 10 mM MgCl2, 0.01% Brij-35, 0.1% BSA, 1 mM EGTA, 5% Glycerol and 5 mM DTT) for 60 minutes at 25° C. The reactions were stopped by the addition of 10 μL of detection buffer (50 mM Tris, pH 7.8, 0.5 mg/mL BSA, 150 mM NaCl), supplemented with EDTA, LANCE Eu-W1024 anti-phosphotyrosine (PY20), (PerkinElmer, Catalog #AD0067) and Streptavidin SureLight APC (PerkinElmer Catalog #CR130-100), for a final concentration of 15 mM, 1.5 nM and 75 nM, respectively. HTRF signals were read after 30 minutes incubation at room temperature on a PHERAstar FS plate reader (BMG LABTECH). Data was analyzed with IDBS XLfit and GraphPad Prism 5.0 software using a four parameter dose response curve to determine IC50 for each compound.
Target sequence in this assay (O60674 808-1132): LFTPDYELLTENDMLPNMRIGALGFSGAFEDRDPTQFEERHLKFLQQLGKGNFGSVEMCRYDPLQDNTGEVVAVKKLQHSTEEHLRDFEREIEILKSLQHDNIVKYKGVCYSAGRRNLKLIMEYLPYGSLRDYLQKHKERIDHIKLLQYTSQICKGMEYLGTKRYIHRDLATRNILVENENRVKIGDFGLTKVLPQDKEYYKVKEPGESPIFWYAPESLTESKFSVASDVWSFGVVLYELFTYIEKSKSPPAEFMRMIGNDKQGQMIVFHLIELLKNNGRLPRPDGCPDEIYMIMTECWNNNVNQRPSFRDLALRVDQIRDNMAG

[4] = target: pseudo-kinase domain (JH2) of human Wild Type JAK2 (Homo sapiens (Human), UniProt O60674, F794H/W659A/W777A); test: JAK2 LanthaScreen JH2-WT Binding Assay; details: 50 nM tracer, 1 hour at 25° C.
Sequence of pseudo-kinase domain (JH2) of human Wild Type JAK2 (O60674 536-812 W659A/W777A/F794H): as the sequence (O60674 536-812 V617F/W659A/W777A/F794H) above, with F82V counted along it
Experimental: Example B. JAK2 LanthaScreen JH2-WT Binding Assay
as §1, with “JH2-WT” for “JH2-V617F”, “Wild Type” for “V617F mutant”, “#79463).” for “#79498).”, “JH2-WT (0.145” for “JH2-V617F (0.26”

Row | SMILES | IC50 [1] [nM] | IC50 [2] [nM] | IC50 [3] [nM] | IC50 [4] [nM]
1 | CCNC(=O)NC1CCC2(CC1)C(=O)N(C)c1cnc(Nc3ccc4cccc(C(F)(F)F)c4n3)cc12 (single isomer, unassigned) [Example 1, 1-Ethyl-3-((1s,4s)-1′-(methyl-d3)-2′-oxo-5′-((8-(trifluoromethyl)quinolin-2-yl)amino)-1′,2′-dihydrospiro[cyclohexane-1,3′-pyrrolo[2,3-c]pyridin]-4-yl)urea, trifluoroacetate salt] | > 2500 | ≤ 100 | > 2500 | –
2 | [2H]C([2H])([2H])N1C(=O)C2(CCC(NC(=O)NCC)CC2)c2cc(Nc3ccc4cccc(C(F)(F)F)c4n3)ncc21 (single isomer, unassigned) [Example 1, 1-Ethyl-3-((1s,4s)-1′-(methyl-d3)-2′-oxo-5′-((8-(trifluoromethyl)quinolin-2-yl)amino)-1′,2′-dihydrospiro[cyclohexane-1,3′-pyrrolo[2,3-c]pyridin]-4-yl)urea, trifluoroacetate salt] | – | – | – | ≤ 100
3 | CCNC(=O)NC1CCC2(CC1)C(=O)N(C)c1cnc(Nc3ccc4cccc(C(F)(F)F)c4n3)cc12 (single isomer, unassigned) [Example 2, 1-Ethyl-3-((1r,4r)-1′-(methyl-d3)-2′-oxo-5′-((8-(trifluoromethyl)quinolin-2-yl)amino)-1′,2′-dihydrospiro[cyclohexane-1,3′-pyrrolo[2,3-c]pyridin]-4-yl)urea, trifluoroacetate salt] | – | – | – | ≤ 100
4 | [2H]C([2H])([2H])N1c2cnc(Nc3ccc4cccc(C(F)(F)F)c4n3)cc2[C@]2(C[C@@H](CNC(=O)OC)C2)C1=O [Example 3, Methyl (((1r,3r)-1′-(methyl-d3)-2′-oxo-5′-((8-(trifluoromethyl)quinolin-2-yl)amino)-1′,2′-dihydrospiro[cyclobutane-1,3′-pyrrolo[2,3-c]pyridin]-3-yl)methyl)carbamate, trifluoroacetate salt] | – | ≤ 100 | > 2500 | –
5 | [2H]C([2H])([2H])N1c2cnc(Nc3ccc4cccc(C(F)(F)F)c4n3)cc2[C@]2(C[C@@H](CNC(=O)C3CC3)C2)C1=O [Example 4, N-(((1r,3r)-1′-(Methyl-d3)-2′-oxo-5′-((8-(trifluoromethyl)quinolin-2-yl)amino)-1′,2′-dihydrospiro[cyclobutane-1,3′-pyrrolo[2,3-c]pyridin]-3-yl)methyl)cyclopropanecarboxamide, trifluoroacetate salt] | – | ≤ 100 | > 2500 | –
6 | [2H]C([2H])([2H])N1c2cnc(Nc3ccc4c(n3)c(-c3cnn(C(F)(F)F)c3)nn4C)cc2[C@]2(C[C@@H](CO)C2)C1=O [Example 5, (1r,3r)-3-(Hydroxymethyl)-1′-(methyl-d3)-5′-((1-methyl-3-(1-(trifluoromethyl)-1H-pyrazol-4-yl)-1H-pyrazolo[4,3-b]pyridin-5-yl)amino)spiro[cyclobutane-1,3′-pyrrolo[2,3-c]pyridin]-2′(1′H)-one, trifluoroacetate salt] | – | ≤ 100 | > 2500 | –
7 | [2H]C([2H])([2H])N1c2cnc(Nc3ccc4c(n3)c(-c3cnn(C(F)(F)F)c3)nn4C)cc2[C@]2(C[C@@H](CNC(=O)OC)C2)C1=O [Example 6, Methyl (((1r,3r)-1′-(methyl-d3)-5′-((1-methyl-3-(1-(trifluoromethyl)-1H-pyrazol-4-yl)-1H-pyrazolo[4,3-b]pyridin-5-yl)amino)-2′-oxo-1′,2′-dihydrospiro[cyclobutane-1,3′-pyrrolo[2,3-c]pyridin]-3-yl)methyl)carbamate, trifluoroacetate salt] | – | ≤ 100 | > 2500 | –
8 | [2H]C([2H])([2H])N1c2cnc(Nc3ccc4c(n3)c(-c3cnn(C(F)(F)F)c3)nn4C)cc2[C@]2(C[C@@H](CNC(=O)C3CC3)C2)C1=O [Example 7, N-(((1r,3r)-1′-(Methyl-d3)-5′-((1-methyl-3-(1-(trifluoromethyl)-1H-pyrazol-4-yl)-1H-pyrazolo[4,3-b]pyridin-5-yl)amino)-2′-oxo-1′,2′-dihydrospiro[cyclobutane-1,3′-pyrrolo[2,3-c]pyridin]-3-yl)methyl)cyclopropanecarboxamide, trifluoroacetate salt] | – | ≤ 100 | > 2500 | –
